For one molecule, solubility and solubility in water results are on record in patent publication US7959948B2, “Pharmaceutical composition of quetiapine fumarate” (Synthon BV, priority 2007, dated 2011).

Data set [1] is described as follows: physchem. The text has this:
The composition preferably comprises an acid, preferably fumaric acid.

The conditions of data set [2]: white crystalline powder; cited from earlier work.

Usually solubility stands for the dissolved amount per volume that the medium holds. A high value points to a readily soluble substance.

Structures can show the parent of a compound that is named as a salt.

On to `OCCOCCN1CCN(C2=Nc3ccccc3Sc3ccccc32)CC1` [Quetiapine fumarate, 2-[2-(4-dibenzo[b,f] [1,4]thiazepin-11-yl-1-piperazinyl)ethoxy]ethanol], for which the solubility in data set [1] (pH 1, simulated gastric fluid) is 35.8 mg/mL; in data set [1] (pH 6.2, aqueous buffer) it was 4.6 mg/mL. Besides, in data set [2], the solubility in water result was “moderately soluble in water”.
